# Reference: ChEMBL document CHEMBL1201862, “PubChem BioAssay data set” (2004)
#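 Compound exposure: 48 hours, 5 concentrations, 96-well plates. GI50 marks 50% less growth.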 The source made the active and inactive calls. Cut-off read from the data, not from the text of the source: active = GI50 up to about 1.1 µM and inactive = higher.
# Tests used:
# Experiment in all cases: NCI-60 cell line screen, 48 h
# HOP-18 = tested on: HOP-18
# KM-20L2 = tested on: KM-20L2
# LXFL 529 = tested on: LXFL 529
# M19-MEL = tested on: M19-MEL
# RXF 631 = tested on: RXF 631
# DLD-1 = tested on: DLD-1
# XF498 = tested on: XF498
# BT-549 = tested on: BT-549
# MDA-N = tested on: MDA-N
SMILES,GI50 (HOP-18),GI50 (KM-20L2),GI50 (LXFL 529),GI50 (M19-MEL),GI50 (RXF 631),GI50 (DLD-1),GI50 (XF498),GI50 (BT-549),GI50 (MDA-N)
Cc1cc2c(cc1C)[n+]([O-])c(C(=O)CC(=O)C(=O)Nc1ccccc1C)c(C)[n+]2[O-],30.5 µM (inactive),> 100 µM (inactive),84.7 µM (inactive),> 100 µM (inactive),32 µM (inactive),–,–,–,–
CCOc1ccc(Nc2nc(C)c(C(=O)/C=C/c3ccc(Cl)cc3Cl)s2)cc1,26.3 µM (inactive),25.4 µM (inactive),18.8 µM (inactive),26.1 µM (inactive),21.8 µM (inactive),26.5 µM (inactive),19.6 µM (inactive),–,–
Cc1ccc(NC(=O)CC/C(CC(=O)C(C)(C)C)=N/NC(=O)C(N)=O)cc1C,> 100 µM (inactive),> 100 µM (inactive),> 100 µM (inactive),> 100 µM (inactive),> 100 µM (inactive),> 100 µM (inactive),> 100 µM (inactive),–,–
Cc1c(C)n(COCCO)c2ncnc(N)c12,> 100 µM (inactive),> 100 µM (inactive),> 100 µM (inactive),> 100 µM (inactive),–,> 100 µM (inactive),> 100 µM (inactive),–,–
C[C@]12CCC3[C@@H](CC[C@@H]4c5nonc5CC[C@]34C)C1C/C(=N/O)C2=O (stereo partly drawn),> 100 µM (inactive),> 100 µM (inactive),18.6 µM (inactive),> 100 µM (inactive),> 100 µM (inactive),–,11.5 µM (inactive),–,–
CCOc1ccc2c(c1)[n+]([O-])c(-c1ccc(Br)cc1)c(N)[n+]2[O-],57.4 µM (inactive),47 µM (inactive),52.2 µM (inactive),59.2 µM (inactive),56.4 µM (inactive),99.5 µM (inactive),49.9 µM (inactive),–,–
O=C(N/C(=C/c1cccc([N+](=O)[O-])c1)c1nc2cc(Cl)ccc2[nH]1)c1ccccc1,30.9 µM (inactive),10.5 µM (inactive),12.6 µM (inactive),24 µM (inactive),10.5 µM (inactive),–,–,–,–
CCCCCCN(CCCCCC)C1=CC(=O)C(=O)c2ccccc21,16.1 µM (inactive),18.2 µM (inactive),19.3 µM (inactive),2.26 µM (inactive),14.7 µM (inactive),15.2 µM (inactive),–,–,–
C[C@]12Cc3conc3C(O)=C1CC[C@@H]1C2CC[C@@]2(C)C1CC[C@]2(C)O (stereo partly drawn),–,13.5 µM (inactive),15.1 µM (inactive),15.1 µM (inactive),21.6 µM (inactive),16.5 µM (inactive),18.2 µM (inactive),–,–
C[C@]12CCC3[C@@H](CC[C@@H]4c5nonc5CC[C@]34C)C1CCC2=O (stereo partly drawn),43.9 µM (inactive),25.7 µM (inactive),23.3 µM (inactive),21.6 µM (inactive),38.2 µM (inactive),–,19.1 µM (inactive),–,–
COC1=C(OC)C(=O)c2cc(C)c(=O)c(C)cc2C1=O,16.3 µM (inactive),21.1 µM (inactive),4.36 µM (inactive),3.37 µM (inactive),50.6 µM (inactive),22.3 µM (inactive),–,15.2 µM (inactive),2.53 µM (inactive)
O=S1(=O)NN=C(NCc2ccc(Cl)cc2)c2ccccc21,–,> 100 µM (inactive),61.1 µM (inactive),> 100 µM (inactive),> 100 µM (inactive),95.1 µM (inactive),90.6 µM (inactive),–,–
C=C1CC2CC[C@@]34C[C@@H]5O[C@@H]6C(O[C@H]7CC[C@H](CC(=O)OC8[C@@H](C)C9OC%10C[C@]%11(C[C@@H]%12O[C@@]%13(C[C@@H](C)[C@@H]%12O%11)C[C@H](C)[C@@H]%11OC%12CC(C(O)CO)OC%12C[C@@H]%11O%13)OC%10CC9O[C@H]8C[C@H]8O[C@@H](CC[C@@H]1O2)C[C@@H](C)C8=C)O[C@@H]7[C@@H]6O3)C5O4 (stereo partly drawn),–,0.000428 µM (active),0.000564 µM (active),–,0.000603 µM (active),0.00267 µM (active),0.000267 µM (active),–,–
CN(C)c1cccc(-c2cc(O)c3cc4c(cc3n2)OCO4)c1,–,0.216 µM (active),0.13 µM (active),0.401 µM (active),0.815 µM (active),0.206 µM (active),0.144 µM (active),–,–
O=C(O)CN(c1ccc(F)cc1)S(=O)(=O)c1ccccc1,> 100 µM (inactive),> 100 µM (inactive),> 100 µM (inactive),> 100 µM (inactive),> 100 µM (inactive),> 100 µM (inactive),> 100 µM (inactive),–,–
O=C1c2ccccc2C(=O)c2c(O)c(O)cc(O)c21 [PURPURIN],–,–,37.2 µM (inactive),36.7 µM (inactive),39.4 µM (inactive),31.5 µM (inactive),22.9 µM (inactive),–,–
